Assay results taken from patent publication US20030077653A1, “Method for the identification of active site protease inactivators” (The University of Georgia Research Foundation, Inc., priority 2000, published 2003).
“Also recorded” adds a separate entry of the source. Residues, ends and D or L forms follow the SMILES beside them. *: point of attachment. Cbz = O=C(OCc1ccccc1)*; CH2F = FC*

Experiments:
[1] = system: purified Taenia solium cysteine protease; assay: Protease inactivator inhibition assay (EC100, Ki; Step VII); assay type: biochemical
Excerpt: Once the protease inactivators were synthesized in the organic laboratory, they were to be tested for the lowest efficacious concentrations at which they induced 100% inhibition of the target protease (EC100). The top percent cocktail that was employed in the final vehicle selection step of Step III was employed as the source of competition for the inhibitors. In this case, this was the […] which was comprised of Z-FR-AFC, Z-FAR-AFC, Z-AP-AFC, Z-AAK-AFC, and Z-VLR-AFC. The final result would be a ranking of transition state candidate protease inactivators with a high ranking directly correlating to a low ECIoo value. The following steps describe the assay:
Step A: Initial Screening. To set up the test control, each protease inactivator was first incubated with the 5% cocktail (which provided the final differentiation of vehicles in Step III). To begin with, the protease inactivator was incubated at a concentration of 3×10^−9M in 500 μl of assay buffer (0.2 M Citrate, pH 4.9 supplemented with 10mM L-cysteine). This concentration was determined, after a series of inhibitor dilutions identified, to be the best inhibitor concentration at which a differentiation in inhibitor potential could be noted. Next, a concentration equal to 4×10^−5M for each of the individual cocktail components, was added to the mix. The components were allowed to equilibrate for a period of 30 minutes. […]
Percent inhibition was calculated as: [formula] […]
Step C: Determination ofInhibitor Ki and mode of inhibition, and re-ranking of EC100 list with inhibitor Ki. Ki of each of the top ranked protease inactivators, based upon low EC100 values, was assessed next for the top 5 EC100 inhibitors.
In order to determine Ki, all of the high Vmax cocktail substrates were employed for Ki determination (since Ki of the inhibitor for the enzyme is the same regardless of the substrate). To insure the highest accuracy, Ki was to be determined upon a minimum of at least three of the high Kcat substrates. […]

[2] = system: T crassiceps cysts; assay: Therapeutic study in BALB/c mice infected with T crassiceps cysts; assay type: in vivo, Taenia crassiceps; conditions: inhibitor treatment began two weeks after infection
Excerpt: Mice in all groups survived without noticeable side effects (e.g., coat condition, tail dragging or paresis, etc).

[3] = system: Taenia crassiceps cysts; assay: Scanning electron microscopy of surfaces of cysts removed from treated mice; assay type: in vivo
Excerpt: FIG. 9. Scanning electron microscopy of the surface of cysts removed from untreated mice versus cysts removed from treated mice. Magnifications are identical for both slides in each panel. panel A (4000×). […] No immune cells were seen on cysts removed from untreated mice. Panel B (25,000×). […] Microtriches in untreated cysts can be seen to be visibly longer. Visible anchors were also noted for the untreated cysts group, whereas these anchors were not observed in microtriches from treated cysts.
For example, we hypothesized that the cysteine protease was a key parasitic molecule to allow the cyst to evade the host immune response, by cleaving host antibodies. By inhibiting the Taenia cysteine protease with Z-LLY-FMK, we hypothesized that host immunoglobulin could now bind the parasites, and initiate immunological responses (e.g., complement via IgG2a) which would cause damage to the cyst wall. […] We identified macrophages, neutrophils, fibroblasts, and collagenous deposits on the cyst surfaces from treated mice, in comparison to their absence on cysts from untreated mice. General surface atrophy was also apparent. […] Breaks in the integrity of the cyst surface were also noted for the cysts removed from treated mice. […] Cysts removed from untreated mice were characterized by no immune cells, intact and longer microtriches, and homogeneity of the cyst surface.

| SMILES | ranking of protease inactivators by inhibition / EC100 [1] | % Therapeutic protection of BALB/c mice [2] | Immune cells observed by SEM on cyst surfaces [3] |
| --- | --- | --- | --- |
| CC(C)C[C@H](NC(=O)[C@H](CC(C)C)NC(=O)[C@H](CC(C)C)NC(=O)OCc1ccccc1)C(=O)CF [Z-LLL-FMK, Z-Leu-Leu-Leu-fluoromethylketone] (Cbz-Leu-Leu-Leu-CH2F) | top inhibitors | 60% | – |
| CC(C)C[C@H](NC(=O)OCc1ccccc1)C(=O)N[C@@H](CC(C)C)C(=O)N[C@@H](Cc1ccc(O)cc1)C(=O)CF [Z-LLY-FMK, Z-Leu-Leu-Tyr-FMK] (Cbz-Leu-Leu-Tyr-CH2F) | top inhibitors | – | vigorous host immune response; also recorded: presence of adherent immune cells; also recorded: Intense |
